# Laboratory results from patent US6979747B2, “Antioxidants, preparation processes and their uses” (Centre National de la Recherche Scientifique (CNRS), priority 1999, dated 2005).
# How the values were obtained:
# [1] = test system: HIV-1/Ba-L; test: Antiviral activity in MDM cultures infected with HIV-1/Ba-L (RT activity in culture supernatants); format: cell-based; conditions: Human immunodeficiency virus 1, BAL; MDMs infected with 1 000 TCID50 (m.o.i. 0.001); read-out: 50% effective dose (ED)
# [2] = test system: TNF-α; test: Synthesis of TNF-α in MDMs stimulated with LPS and IFN-γ; format: cell-based, human; conditions: MDMs stimulated with LPS (1 μg/ml) and IFN-γ (100 IU/ml)
# Procedure: The synthesis of tumor necrosis factor (TNF-α) was […] in the MDM culture supernatants using the calorimetric kit sold by Cayman.
# The compound I-152 and its derivatives are prepared extemporaneously by being dissolved in dimethyl sulfoxide (DMSO) at the concentration of 100 mM. They are subsequently stored at −20° C. after having been diluted 10 fold in phosphate buffer (PBS).
# Tumor necrosis factor (TNF-α), like the oxygen-comprising or nitrogen-comprising radical components, plays a major role in the apoptotic processes associated with infection the HIV. Furthermore, the radical components can promote the synthesis of this proinflammatory cytokine. For this reason, the effects of I-152 in decreasing the synthesis of TNF-α were thus looked for in MDMs stimulated by a bacterial lipopolysaccharide and interferon (IFN-γ).
# [3] = test system: GSH; test: Intracellular concentration of GSH in spleen macrophages; format: cell-based, human
# Procedure: The spleen is dissected and sieved and then the mononuclear cells are isolated using a density gradient, on a Ficoll cushion. The monocytes/macrophages are obtained by adherence to the plastic. The monocytes were allowed to differentiate into macrophages for 7 days, at which time they were infected.
# The intracellular GSH was assayed by means of the assay kit sold by Cayman. This method for assaying glutathione is an adaptation of that described by O. W. Griffith et al. (1980).
# [4] = test system: HIV provirus; test: Quantification of proviral DNAs by PCR (integration of the provirus within the cell genome); format: cell-based; conditions: PCR of proviral DNA
# Procedure: I-152 is composed of MEA and NAC, which are capable of interacting with the early phases of the biological cycle of HIV. It is therefore capable of decreasing the integration of the provirus into the cell genome. In order to measure these effects, the proviral DNAs were quantified by PCR. The cells were lysed using 1 ml of the following lysis solution: 10 mM Tris HCl pH 8; 100 mM of EDTA pH 8; 0.5% of sodium dodecyl sulfate (SDS); 20 μg/ml of DNAse-free bovine pancreatic RNAse. 200 μg/ml of proteinase K are subsequently added to this suspension. The DNAs were subsequently extracted using 1 ml of an ice-cold saturated phenol solution and 1 ml of a […] solution.
# The viral DNAs were then amplified by means of specific primers of the gag gene (SK01/SK39) and of a standard range of the 8E5 line, a chronically infected line, the cells of which carry a proviral copy. The β-globin gene was used as reporter gene in order to make sure of the quality of the DNA extraction.
# [5] = test system: HIV-1/Ba-L; test: Production of p25 protein in supernatants of MDMs infected with HIV-1/Ba-L (ELISA); format: cell-based; conditions: infected MDM cultures
# Procedure: The assaying of the p25 protein is carried out using the ELISA kit from DuPont de Nemours. 200 μl of the culture supernatant to be tested are placed in a well of a microtitration plate. The addition of 20 μl of lysis buffer releases the viral proteins in the medium. The released antigen attaches to a mouse anti-p25 monoclonal antibody immobilized at the bottom of the wells. After incubating for 2 h at 37° C., 3 washing operations using 5 ml of washing buffer are carried out and then 100 μl of a biotinylated polyclonal antibody which reacts with the immobilized antigen are incubated for 1 h at 37° C. The series of 3 washing operations in the same buffer and with the same volume is again carried out before the addition over 15 min at 37° C. of 100 μl of Raifort-streptavidin peroxidase conjugate which will make it possible to amplify the colorimetric reaction. […] After incubating for 30 min at ambient temperature, the reaction is halted by the addition of 100 μl of 4N sulfuric acid. The OD of the coloring thus obtained is read at […]. This absorbence is directly proportional to the amount of attached antigen. The linear relationship relating the O.D. to the p25 concentration is established by virtue of a standard range produced from a recombinant p25 solution.
# [6] = test system: PBLs
structure (smiles),measurement,setting,value
"CC(=O)N[C@@H](CS)C(=O)NCCSC(C)=O [I-152, N-(N-acetyl-L-cysteinyl)-S-acetylcysteamine]",EC50,[1],3 µM
same,synthesis of TNF-α (in words),[2],inhibits the synthesis of TNF-α
same,concentration from which the GSH increase is saturated,[3],≥ 250 µM
same,intracellular level of GSH (in words),[3],increases the intracellular level of GSH
same,integration of the provirus (in words),[4],inhibits the integration of the provirus
same,production of the p25 protein (in words),[5],inhibition of the production of the p25 protein
same,cytotoxicity (in words),[6],not cytotoxic
